According to paper PMC8831520, “Small molecule SWELL1 complex induction improves glycemic control and nonalcoholic fatty liver disease in murine Type 2 diabetes” (Nature Communications, 2022):
Values joined by “and” are separate entries in the source; they are usually repeats but may differ in a detail not shown here. Equal entries are not always repeated. “Also recorded” adds a separate entry of the source.

Columns and labels:
[1] = tested on: T1, SWELL1 protein in 3T3-F442A preadipocytes; assay: SWELL1 protein western blot in preadipocytes; format: cell-based, murine; conditions: 10 µM, 96 h
T1 construct: host or cells: 3T3-F442A preadipocytes and differentiated adipocytes (wild type)
Procedure: In the case of 3T3-F442A adipocytes, the WT and KO cells were treated with either vehicle (DMSO), 1 or 10 µM SN-40X (after 7–11 days of differentiation) for 96 h and then stimulated with 0 and 10 nM insulin/serum-containing media with vehicle (DMSO) or SN-40X for 15 min for SWELL1 detection. […] To simulate glucolipotoxicity, 8 mM sodium palmitate was dissolved in 18.4% fatty-acid free BSA at 37 °C in DMEM medium with 25 mM glucose to obtain a conjugation ratio of 1:3 palmitate:BSA[80].
Adipocytes were washed twice in ice-cold phosphate buffer saline and lysed in RIPA buffer (150 mM NaCl, 20 mM HEPES, 1% NP-40, 5 mM EDTA, pH 7.4) with proteinase/phosphatase inhibitors (Roche). The cell lysate was further sonicated in 10 s cycle intervals 2–3 times and centrifuged at 18,407×g for 30 min at 4 °C and repeated one more time to remove the excess fat. The supernatant was collected and further estimated for protein concentration using a DC protein assay kit (Bio-Rad). Fat and liver tissues were homogenized and suspended in RIPA buffer with inhibitors and further processed in a similar fashion as described above. HUVECs were also prepared in a similar fashion except the lysates were spun only once to remove the cells debris to obtain the clear supernatant. […] The images were further analyzed for band intensities using ImageJ software. […]

[2] = tested on: SWELL1/LRRC8a-e mRNA in 3T3-F442A cells; assay: qRT-PCR of LRRC8 family mRNA; format: cell-based, murine; conditions: 10 µM, 96 h
Procedure: RNA samples were isolated using the PureLink RNA kit (Life Technologies) as per the manufacturer’s instructions. Complementary DNA (cDNA) synthesis was carried out using an iScript Reverse Transcriptase kit (Bio-Rad). […] Each sample measurement was carried out in triplicate. GAPDH was used as the internal standard and the fold change was calculated relative to GAPDH was normalized to vehicle group. The following qRT-PCR primers (5′ to 3′) were used: GAPDH forward—[…] and reverse— […]; SWELL1 forward—[…] and reverse— […]; LRRC8b forward—[…] and reverse— […]; LRRC8c forward—[…] and reverse—[…]; LRRC8d forward—[…] and reverse— […]; LRRC8e forward—[…] and reverse— […], respectively.

murine islets = assay: GSIS perifusion of palmitate-treated murine islets; format: cell-based, mouse; conditions: 10 µM for 4 days prior to and during 1 mM palmitate 16 h, washed off during GSIS
HFD-T2D mice = assay: NAFLD in HFD-fed mice: liver triglycerides, histology, NAS; format: in vivo, mouse
Procedure: Gross liver weights were measured and identical sections from the right medial lobe of the liver were dissected for further examinations. Total triglyceride content was determined by homogenization of 10–50 mg of tissue in 1.5 ml of chloroform:methanol (2:1 v/v) followed by centrifugation at 16,260×g for 10 min at 4 °C. A 20 µl of the supernatant was evaporated in a 1.5 ml microcentrifuge tube for 30 min. Triglyceride content was determined by adding 100 µl of Infinity Triglyceride Reagent (Fisher Scientific) to the dried sample followed by 30 min incubation at RT. The samples were then transferred to a 96-well plate along with standards (0–2000 mg/dl) and absorbance was measured at 540 nm and the final concentration was determined by normalizing to tissue weight. For histological examination, liver sections were fixed in 10% zinc formalin and paraffin-embedded for sectioning. Hematoxylin and eosin (H&E) stained sections were then assessed for steatosis grade, lobular inflammation, and hepatocyte ballooning for nonalcoholic fatty liver disease (NAFLD) scoring[46],[95],[96].

T2D KKAy mice = assay: Plasma adiponectin and FGF21 ELISA; format: in vivo, mouse; conditions: 5 mg/kg i.p. daily × 5 days, vs vehicle
Procedure: Plasma adiponectin and FGF21 levels were measured using Mouse Adiponectin/Acrp30 Quantikine ELISA (Bio-Techne R&D Systems, MRP300) and mouse/rat FGF21 ELISA (BioVendor R&D, RD291108200R) kits respectively, as per the manufacturer’s instructions.

[3] = design: method as in Zhang et al., Experimental Neurology, 2008; conditions: ref Zhang et al., Experimental Neurology, 2008; cited from earlier work

CCCCC1(C2CCCC2)Cc2cc(OCCCC(=O)O)c(Cl)c(Cl)c2C1=O (stereo not shown) [SN-401, 4-((2-butyl-6,7-dichloro-2-cyclopentyl-1-oxo-2,3-dihydro-1H-inden-5-yl)oxy)butanoic acid]
SWELL1 protein expression [1]: threefold
SWELL1 and LRRC8b-e mRNA [2]: not associated with increases in SWELL1 mRNA
glucose-stimulated insulin secretion after palmitate (murine islets): normalized
reduction in body weight compared to vehicle (HFD-T2D mice; 16 weeks HFD then intermittent dosing over 5 weeks): 14%
improvement of NAFLD-activity score (NAS) (HFD-T2D mice; 16 weeks HFD then intermittent dosing over 5 weeks, vs vehicle): > 2 points
hepatic steatosis and hepatocyte damage (HFD-T2D mice; histologic evaluation, vs vehicle): significant reductions
hepatic triglyceride concentrations (HFD-T2D mice; vs vehicle): lower
serum FGF21 increase (T2D KKAy mice): 2.8 fold and 3 fold
serum adiponectin (T2D KKAy mice): unchanged; also recorded: no differences
blood brain barrier passage [3]: does not cross the blood brain barrier
